The values that follow are results of earlier work, collected in article PMC11979273, “A phase I study to evaluate the safety, tolerability, and pharmacokinetics of HEC113995PA·H2O, a novel dual-acting serotonergic antidepressant, in healthy subjects” (Frontiers in Pharmacology, 2025).

The Cmax is the peak of the concentration-time curve.

The conditions of this series: cited from earlier work.

On to `N#Cc1ccc2[nH]cc(CCCCN3CCN(c4ccc5oc(C(N)=O)cc5c4)CC3)c2c1` [Vilazodone], for which, for the setting “20 mg dose”, the “AUC0-∞” value is 502 ng·h/mL and the highest concentration (Cmax) was 28.5 ng/mL. For the same compound, for the setting “in vivo”, the “Tmax (peak)” value is 5 h and the t1/2 is recorded as 24.1 h.
